The text below walks through data of patent US20240400555A1 (Initial Therapeutics, Inc., priority 2023, published 2024).

The test system of the test is HCT-116 Firefly-luciferase reporter cells. The test can be described thus: Cellular c-MYC Reporter Assay. The settings on record: Homo sapiens; untitled table following Table 8a; HCT-116 Firefly-luciferase reporter cells, 24 h; read-out: pIC50 (converted). The format is cell-based. The gist of the method: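 Reporter cells seeded at 5e4 cells/mL in McCoy's 5A with 10% FBS and G418, dosed after 4–6 h at 0.2% final DMSO. After 24 h at 37 °C, luciferase luminescence was read with ONE-Glo.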
Background: A reporter such as luciferase makes a cellular process visible.
In the case of `O=C(c1ccc(-n2nnc3cccnc32)cc1F)N(c1nccc2ccc(-c3ccn[nH]3)cc12)[C@@H]1CCCNC1` [Example 152, (R)—N-(7-(1H-pyrazol-5-yl)isoquinolin-1-yl)-4-(3H-[1,2,3]triazolo[4,5-b]pyridin-3-yl)-2-fluoro-N-(piperidin-3-yl)benzamide], the IC50 is 468 nM.

`CCOC(=O)/C=C/c1ccc2c(N(C(=O)c3ccc(-n4nnc5cccnc54)cc3F)[C@@H]3CCCNC3)nccc2c1` [Example 98, ethyl (R,E)-3-(1-(4-(3H-[1,2,3]triazolo[4,5-b]pyridin-3-yl)-2-fluoro-N-(piperidin-3-yl)benzamido)isoquinolin-6-yl)acrylate]: the IC50 was 759 nM.

As to `O=C(O)c1ccc2c(N(C(=O)c3ccc(-n4nnc5cccnc54)cc3F)[C@@H]3CCCNC3)nccc2c1` [Example 118, (R)-1-(4-(3H-[1,2,3]triazolo[4,5-b]pyridin-3-yl)-2-fluoro-N-(piperidin-3-yl)benzamido)isoquinoline-6-carboxylic acid], the IC50 is more than 20000 nM.

Regarding `Cc1cccc2ccnc(N(C(=O)c3ccc(-n4nnc5ccc(-c6ccccc6)nc54)cc3F)[C@@H]3CCCNC3)c12` [Example 171, (R)-2-fluoro-N-(8-methylisoquinolin-1-yl)-4-(5-phenyl-3H-[1,2,3]triazolo[4,5-b]pyridin-3-yl)-N-(piperidin-3-yl)benzamideamide], the IC50 was 288 nM.

Turning to `Cc1cccc2ccnc(N(C(=O)c3ccc(-n4nnc5ccc(-c6cc[nH]n6)nc54)cc3F)[C@@H]3CCCNC3)c12` [Example 138, (R)-4-(5-(1H-pyrazol-3-yl)-3H-[1,2,3]triazolo[4,5-b]pyridin-3-yl)-2-fluoro-N-(8-methylisoquinolin-1-yl)-N-(piperidin-3-yl)benzamide], the IC50 was 44.7 nM.

As for `O=C(c1ccc(-n2nnc3cccnc32)cc1F)N(c1ncccc1C1=CCNC1)[C@@H]1CCCNC1` [Example 113, (R)-4-(3H-[1,2,3]triazolo[4,5-b]pyridin-3-yl)-N-(3-(2,5-dihydro-1H-pyrrol-3-yl)pyridin-2-yl)-2-fluoro-N-(piperidin-3-yl)benzamide], the IC50 is 4270 nM.

On to `Cc1cccc2ccnc(N(C(=O)c3ccc(-n4nccn4)cc3F)[C@@H]3CCCNC3)c12` [Example 194, (R)-2-fluoro-N-(8-methylisoquinolin-1-yl)-N-(piperidin-3-yl)-4-(2H-1,2,3-triazol-2-yl)benzamide], for which the IC50 is 1200 nM.

With `Cc1cccc2ccnc(N(C(=O)c3ccc(-c4n[nH]c5c4CNCC5)cc3F)[C@@H]3CCCNC3)c12` [Example 296, (R)-2-fluoro-N-(8-methylisoquinolin-1-yl)-N-(piperidin-3-yl)-4-(4,5,6,7-tetrahydro-1H-pyrazolo[4,3-c]pyridin-3-yl)benzamide], the IC50 is more than 20000 nM.

As to `Cc1cccc2ccnc(N(C(=O)N3CCC(c4nc(-c5ccccc5)no4)CC3)[C@@H]3CCCNC3)c12` [Example 263], the IC50 was 1260 nM.

Take `Cc1cccc2ccnc(N(C(=O)C3CCN(C=O)CC3)[C@@H]3CCCNC3)c12` [Example 301, (R)-1-formyl-N-(8-methylisoquinolin-1-yl)-N-(piperidin-3-yl) piperidine-4-carboxamide]: the IC50 was more than 10000 nM.

On to `Cc1cccc2ccnc(N(C(=O)N3CCC(n4ncc5ccccc54)CC3)[C@@H]3CCCNC3)c12` [Example 266, (R)-4-(1H-indazol-1-yl)-N-(8-methylisoquinolin-1-yl)-N-(piperidin-3-yl)piperidine-1-carboxamide], for which the IC50 was 2950 nM.

Regarding `Cc1cccc2ccnc(N(C(=O)c3ccc(Oc4ncccn4)cc3F)[C@@H]3CCCNC3)c12` [Example 133, 2-fluoro-N-(8-methyl-1-isoquinolyl)-N-(3-piperidyl)-4-pyrimidin-2-yloxy-benzamide], the IC50 is 269 nM.

As for `CNC(=O)OCc1ccc2ccnc(N(C(=O)c3ccc(-n4nnc5cccnc54)cc3F)[C@@H]3CCCNC3)c2c1` [Example 153, (R)-(1-(4-(3H-[1,2,3]triazolo[4,5-b]pyridin-3-yl)-2-fluoro-N-(piperidin-3-yl)benzamido)isoquinolin-7-yl)methyl methylcarbamate], the IC50 was 2400 nM.

Turning to `Cc1cccc2ccnc(N(C(=O)N3CC=C(c4noc5cc(F)ccc45)CC3)[C@@H]3CCCNC3)c12` [Example 257, (R)-4-(6-fluorobenzo[d]isoxazol-3-yl)-N-(8-methylisoquinolin-1-yl)-N-(piperidin-3-yl)-3,6-dihydropyridine-1(2H)-carboxamide], the IC50 was 4170 nM.

For the compound `Cc1ccc(C)c2c(N(C(=O)c3ccc(-n4nnc5cccnc54)cc3F)[C@@H]3CCCNC3)nccc12` [Example 253, (R)-4-(3H-[1,2,3]triazolo[4,5-b]pyridin-3-yl)-N-(5,8-dimethylisoquinolin-1-yl)-2-fluoro-N-(piperidin-3-yl)benzamide], the IC50 was 115 nM.

In the case of `O=C(c1ccc(-n2nnc3cccnc32)cc1F)N(c1ncccc1-c1ccsc1)[C@@H]1CCCNC1` [Example 177, (R)-4-(3H-[1,2,3]triazolo[4,5-b]pyridin-3-yl)-2-fluoro-N-(piperidin-3-yl)-N-(3-(thiophen-3-yl)pyridin-2-yl)benzamide], the IC50 was 355 nM.

For the compound `Cc1cccc2ccnc(N(C(=O)c3ccc(-n4nnc5cccnc54)cc3F)[C@H]3CNCC(F)(F)C3)c12` [Example 175, (R)-4-(3H-[1,2,3]triazolo[4,5-b]pyridin-3-yl)-N-(5,5-difluoropiperidin-3-yl)-2-fluoro-N-(8-methylisoquinolin-1-yl)benzamide], the IC50 is 9330 nM.

For the compound `Cc1cn(-c2ccc(C(=O)N(c3nccc4cccc(C)c34)[C@@H]3CCCNC3)cc2)nn1` [Example 236, (R)-4-(4-methyl-1H-1,2,3-triazol-1-yl)-N-(8-methylisoquinolin-1-yl)-N-(piperidin-3-yl)benzamide], the IC50 was 166 nM.

As to `CNC(=O)c1cccnc1N(C(=O)c1ccc(-n2nnc3cccnc32)cc1F)[C@@H]1CCCNC1` [Example 213, (R)-2-(4-(3H-[1,2,3]triazolo[4,5-b]pyridin-3-yl)-2-fluoro-N-(piperidin-3-yl)benzamido)-N-methylnicotinamide], the IC50 is 646 nM.

Turning to `Cc1cccc2ccnc(N(C(=O)c3ccc(-n4nnc5cccnc54)cc3)[C@@H]3CCCNC3)c12` [Example 241, (R)-4-(3H-[1,2,3]triazolo[4,5-b]pyridin-3-yl)-N-(8-methylisoquinolin-1-yl)-N-(piperidin-3-yl)benzamide], the IC50 is 60.3 nM.

Regarding `Cc1cccc2ccnc(N(C(=O)c3ccc(-n4nnc5ccc(C(=O)O)nc54)cc3F)[C@@H]3CCCNC3)c12` [Example 293, (R)-3-(3-fluoro-4-((8-methylisoquinolin-1-yl)(piperidin-3-yl)carbamoyl)phenyl)-3H-[1,2,3]triazolo[4,5-b]pyridine-5-carboxylic acid], the IC50 is more than 20000 nM.

As to `Cc1cccc2ccnc(N(C(=O)c3ccc(Nc4nccc5cccnc45)cc3F)[C@@H]3CCCNC3)c12` [Example 276, (R)-4-((1,7-naphthyridin-8-yl)amino)-2-fluoro-N-(8-methylisoquinolin-1-yl)-N-(piperidin-3-yl)benzamide], the IC50 is 7080 nM.

Regarding `Cc1cccc2ccnc(N(C(=O)c3ccc(-c4cccnn4)cc3)[C@@H]3CCCNC3)c12` [Example 237, (R)—N-(8-methylisoquinolin-1-yl)-N-(piperidin-3-yl)-4-(pyridazin-3-yl)benzamide], the IC50 is 589 nM.

For the compound `Cc1cccc2ccnc(N(C(=O)N3CCN(c4nncc5ccccc45)CC3)[C@@H]3CCCNC3)c12` [Example 270], the IC50 is 2000 nM.

`COC(=O)c1ccc2nnn(-c3ccc(C(=O)N(c4nccc5cccc(C)c45)[C@@H]4CCCNC4)c(F)c3)c2n1` [Example 140, methyl (R)-3-(3-fluoro-4-((8-methylisoquinolin-1-yl)(piperidin-3-yl)carbamoyl)phenyl)-3H-[1,2,3]triazolo[4,5-b]pyridine-5-carboxylate]: the IC50 was 240 nM.

As to `Cc1cccc2ccnc(N(C(=O)c3ccc(Nc4ncccc4N)cc3F)[C@@H]3CCCNC3)c12` [Example 274, (R)-4-((3-aminopyridin-2-yl)amino)-2-fluoro-N-(8-methylisoquinolin-1-yl)-N-(piperidin-3-yl)benzamide], the IC50 is 3800 nM.

Turning to `N#Cc1ccc2ccnc(N(C(=O)c3ccc(-n4nnc5cccnc54)cc3F)[C@@H]3CCCNC3)c2c1` [Example 156], the IC50 is 7080 nM.

For `Cc1cccc2ccnc(N(C(=O)c3ccc(-c4cnn(C)c4C(=O)O)cc3)[C@@H]3CCCNC3)c12` [Example 294, 2-methyl-4-[4-[(8-methyl-1-isoquinolyl)-[(3R)-3-piperidyl]carbamoyl]phenyl] pyrazole-3-carboxylic acid], the IC50 is more than 10000 nM.

Regarding `Cc1cccc2ccnc(N(C(=O)N3CCC(c4cc(C(N)=O)no4)CC3)[C@@H]3CCCNC3)c12` [Example 288, (R)-5-(1-((8-methylisoquinolin-1-yl)(piperidin-3-yl)carbamoyl)piperidin-4-yl)isoxazole-3-carboxamide], the IC50 is 1350 nM.

On to `CC(C)(C)[Si](C)(C)OC/C=C/c1cc2c(N(C(=O)c3ccc(-n4nnc5cccnc54)cc3F)[C@@H]3CCCNC3)nccc2s1` [Example 99, (R,E)-4-(3H-[1,2,3]triazolo[4,5-b]pyridin-3-yl)-N-(2-(3-((tert-butyldimethylsilyl)oxy)prop-1-en-1-yl)thieno[3,2-c]pyridin-4-yl)-2-fluoro-N-(piperidin-3-yl)benzamide], for which the IC50 was 2000 nM.

For `O=C(c1ncc(-n2nnc3cccnc32)cc1F)N(c1nccc2cccc(Cl)c12)[C@@H]1CCCNC1` [Example 200, (R)-5-(3H-[1,2,3]triazolo[4,5-b]pyridin-3-yl)-N-(8-chloroisoquinolin-1-yl)-3-fluoro-N-(piperidin-3-yl)picolinamide], the IC50 was 77.6 nM.

In the case of `CCc1nnn(-c2ccc(C(=O)N(c3nccc4cccc(C)c34)[C@@H]3CCCNC3)c(F)c2)n1` [Example 142, (R)-4-(5-ethyl-2H-tetrazol-2-yl)-2-fluoro-N-(8-methylisoquinolin-1-yl)-N-(piperidin-3-yl)benzamide], the IC50 was 79.4 nM.
